Data from publication PMC7255010, “Small-molecule activating SIRT6 elicits therapeutic effects and synergistically promotes anti-tumor activity of vitamin D3 in colorectal cancer” (Theranostics, 2020).

What was measured:
[1] = biological target: SIRT6 (Homo sapiens, UniProt Q8N6T7); test: FDL assay of SIRT6 deacetylase activity (RHKK-Ac-AMC); type: biochemical; design: WT (wild-type) full-length human SIRT6 was inserted into the pET28a-LIC vector; made in house; host or cells: Escherichia coli BL21 (DE3); details: activation of SIRT6 deacetylation, RHKK-Ac-AMC (75 µM), mean ± s.d., three independent experiments
Procedure: According to previously described methods, WT (wild-type) full-length human SIRT6 was inserted into the pET28a-LIC vector (Addgene plasmid #26094). The plasmid was transformed into Escherichia coli BL21 (DE3) cells. Protein was purified using a nickel column and gel filtration. Purified protein was dialyzed into assay buffer (50 mM Tris-HCl [pH 8.0], 137 mM NaCl, 2.7 mM KCl, and 1 mM MgCl2) and used in all in vitro assays performed in this study.
For the assessment of SIRT6 deacetylase activity, 5 μM WT SIRT6 was incubated in a 50-μL reaction mixture (2.5 mM NAD^+, 75 μM RHKK-Ac-AMC, compounds/DMSO, and assay buffer) at 37 °C for 2 h, quenched with 40 mM nicotinamide, and developed with 6 mg/mL trypsin for another 30 min at 25 °C. […] Fluorescence intensity was measured using a microplate reader (Synergy H4 Hybrid Reader, BioTek) at excitation and emission wavelengths of 360 nm and 460 nm, respectively. EC50 values were calculated by fitting the data points with the dose-response function in GraphPad Prism V7 (GraphPad Software). Each experiment was independently repeated three times in technical triplicates.

[2] = test system: CYP24A1; test: RT-qPCR of CYP24A1 mRNA in CRC cells; type: cell-based, human; details: HCT116 and HT29 cells, 1,25(OH)2D3 (5 µM), 48 h
Procedure: Total RNA was extracted with TRIzol reagent (Invitrogen) according to the manufacturer's instructions. For cDNA synthesis, 1 μg of total RNA was reverse transcribed using a FastKing RT Kit (Tiangen). RT-qPCRs were run in triplicate using SYBR Green master mix (Roche) in an ABI 7900 Thermal Cycler (Applied Biosystems) according to the manufacturer's instructions. RT-qPCRs were performed in triplicate, and the mean cycle threshold (Ct) values were calculated for expression analysis. The mRNA levels of target genes were calculated using the 2^-ΔΔCt method. The expression data were normalized to β-actin expression levels and are presented as the mean ± s.e.m. of three independent experiments.

[3] = Pharmacokinetic studies in mice; type: in vivo; design: t1/2 / F (bioavailability): dose or concentration left out as unconfirmed; details: C57BL/6J mice
Procedure: Pharmacokinetic studies were performed by Shanghai Medicilon Inc, China, following standard protocols. Briefly, six-week-old male C57BL/6J mice were grouped randomly (n = 5 per group). […] Two administration formulations were prepared in the vehicle with 5% DMSO, 10% Solutol and 85% saline, with the pH adjusted to 7.0-8.0. After treatment, the mice were sacrificed, and their plasma samples were collected at 5 min, 15 min, 30 min, 1 h, 2 h, 4 h, 8 h, and 24 h. The drug concentration in plasma was analyzed by LC-MS/MS. Pharmacokinetic parameters were calculated using Analyst Software 1.6.3 from mean plasma concentration-time profiles. The area under the curve (AUC) was measured from time versus concentration data by the linear trapezoidal rule. […] The calculation was normalized to relative doses.

Chain of SIRT6 (Q8N6T7 whole entry): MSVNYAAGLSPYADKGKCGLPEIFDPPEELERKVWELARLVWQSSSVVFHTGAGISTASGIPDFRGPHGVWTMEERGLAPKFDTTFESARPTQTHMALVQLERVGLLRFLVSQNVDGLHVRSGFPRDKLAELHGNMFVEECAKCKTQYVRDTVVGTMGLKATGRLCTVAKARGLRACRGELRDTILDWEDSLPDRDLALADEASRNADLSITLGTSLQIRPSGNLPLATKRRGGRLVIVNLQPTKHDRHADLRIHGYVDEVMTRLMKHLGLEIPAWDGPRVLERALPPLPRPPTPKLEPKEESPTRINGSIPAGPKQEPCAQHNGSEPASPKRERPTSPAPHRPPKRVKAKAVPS

| EC50 [1] | SMILES | other results |
| --- | --- | --- |
| 34.1 ± 2.6 µM | CCN(C)Cc1cc(NS(=O)(=O)c2cc(Cl)cc(Cl)c2)ccc1S(=O)(=O)Nc1cc(Br)c(F)cc1C [MDL-819] |  |
| 12.2 ± 0.7 µM | Cc1cc(F)c(Br)cc1NS(=O)(=O)c1ccc(NS(=O)(=O)c2cc(Cl)cc(Cl)c2)cc1CN1CCC(N2CCCCC2)CC1 [MDL-814] |  |
| 12.8 ± 1 µM | Cc1cc(F)c(Br)cc1NS(=O)(=O)c1ccc(NS(=O)(=O)c2cc(Cl)cc(Cl)c2)cc1CN1CCNCC1 [MDL-812] |  |
| 38.4 ± 1.8 µM | CCCN(C)Cc1cc(NS(=O)(=O)c2cc(Cl)cc(Cl)c2)ccc1S(=O)(=O)Nc1cc(Br)c(F)cc1C [MDL-820] |  |
| 12.2 ± 0.9 µM | Cc1cc(F)c(Br)cc1NS(=O)(=O)c1ccc(NS(=O)(=O)c2cc(Cl)cc(Cl)c2)cc1CN1CCCCC1 [MDL-821] |  |
| 43.6 ± 3.2 µM | Cc1cc(F)c(Br)cc1NS(=O)(=O)c1ccc(NS(=O)(=O)c2cc(Cl)cc(Cl)c2)cc1CN(C)C [MDL-818] |  |
| 7.1 ± 0.3 µM | CCCCN1CCN(Cc2cc(NS(=O)(=O)c3cc(Cl)cc(Cl)c3)ccc2S(=O)(=O)Nc2cc(Br)c(F)cc2C)CC1 [MDL-816] |  |
| 9.9 ± 1.5 µM | Cc1cc(F)c(Br)cc1NS(=O)(=O)c1ccc(NS(=O)(=O)c2cc(Cl)cc(Cl)c2)cc1CN1CCC(N(C)C)C1 (stereo not shown) [MDL-817] |  |
|  | C=C1/C(=C\C=C2/CCC[C@]3(C)[C@@H]([C@H](C)CCCC(C)(C)O)CC[C@@H]23)C[C@@H](O)C[C@@H]1O [1,25(OH)2D3, 1,25-dihydroxyvitamin D3, reference compound] | CYP24A1 transcription [2]: dramatically induced CYP24A1 transcription |
| 15.4 ± 0.4 µM | CCCCN(CC)Cc1cc(NS(=O)(=O)c2cc(Cl)cc(Cl)c2)ccc1S(=O)(=O)Nc1cc(Br)c(F)cc1C [MDL-813] |  |
| 6.5 ± 0.4 µM | COCCCN1CCN(Cc2cc(NS(=O)(=O)c3cc(Cl)cc(Cl)c3)ccc2S(=O)(=O)Nc2cc(Br)c(F)cc2C)CC1 [MDL-815] |  |
| 23.9 ± 1 µM | Cc1cc(F)c(Br)cc1NS(=O)(=O)c1ccc(NS(=O)(=O)c2cc(Cl)cc(Cl)c2)cc1CN1CCCC1CO (stereo not shown) [MDL-822] |  |
|  | COC(=O)c1cc(NS(=O)(=O)c2cc(Cl)cc(Cl)c2)ccc1S(=O)(=O)Nc1cc(Br)c(F)cc1C [MDL-800, reference compound] | F (bioavailability) ([3]; IP vs IV, ratio of AUC normalized to dose): 71.33%; AUC0-t ([3]; IP, plasma, mean of five mice): 17831.51 ng·h/mL; AUC0-∞ ([3]; IP, plasma, mean of five mice): 17883.09 ng·h/mL; Cmax ([3]; IP, plasma, mean of five mice): 6610.46 ng/mL; MRT ([3]; IP, plasma, mean of five mice): 2.47 h; t1/2 ([3]; IP, plasma, mean of five mice): 2.07 h; tmax ([3]; IP, plasma, mean of five mice): 0.50 h |
